Experimental data published in ChEMBL document CHEMBL3600362, “Synthesis of CNS active thyrotropin-releasing hormone (TRH)-like peptides: Biological evaluation and effect on cognitive impairment induced by cerebral ischemia in mice” (Bioorg Med Chem, 2015).
Calls of active or inactive are those of the source. The calls are words filed in the database; no cut-off is given here.

How the values were obtained:
[1] = biological target: T1, Thyrotropin-releasing hormone receptor (Mus musculus, UniProt P21761); assay: Displacement of [3H]-1-MeHis-TRH from mouse TRH-R1 expressed in HEK293 cells incubated up to 4 hrs by scintillation counting method; type: cell-based
T1 sequence (P21761 whole entry): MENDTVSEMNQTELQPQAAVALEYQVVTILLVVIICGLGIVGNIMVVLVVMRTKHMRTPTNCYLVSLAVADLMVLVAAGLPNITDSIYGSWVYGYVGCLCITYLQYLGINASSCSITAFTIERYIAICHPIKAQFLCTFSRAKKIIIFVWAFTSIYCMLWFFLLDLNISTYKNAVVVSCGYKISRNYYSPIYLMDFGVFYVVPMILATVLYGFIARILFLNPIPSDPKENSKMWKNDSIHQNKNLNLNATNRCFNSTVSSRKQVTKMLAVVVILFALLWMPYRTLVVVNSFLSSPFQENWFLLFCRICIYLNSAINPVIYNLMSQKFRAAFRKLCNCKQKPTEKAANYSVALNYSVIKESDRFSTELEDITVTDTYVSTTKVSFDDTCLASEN

[2] = biological target: T2, Thyrotropin-releasing hormone receptor 2 (Mus musculus, UniProt Q9ERT1); assay: Displacement of [3H]-1-MeHis-TRH from mouse TRH-R2 expressed in HEK293 cells incubated up to 4 hrs by scintillation counting method; type: cell-based
T2 sequence (Q9ERT1 whole entry): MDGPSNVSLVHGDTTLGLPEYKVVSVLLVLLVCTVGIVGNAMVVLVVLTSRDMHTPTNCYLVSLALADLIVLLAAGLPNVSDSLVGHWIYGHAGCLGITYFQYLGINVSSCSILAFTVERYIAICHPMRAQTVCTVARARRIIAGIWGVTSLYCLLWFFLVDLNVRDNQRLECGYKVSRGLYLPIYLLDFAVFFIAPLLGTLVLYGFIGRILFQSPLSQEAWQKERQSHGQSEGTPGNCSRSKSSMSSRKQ

[3] = biological target: T1, Thyrotropin-releasing hormone receptor; assay: Agonist activity at mouse TRH-R1 expressed in HEK293 cells assessed as induction of changes in intracellular Ca2+ level by FLIPR method; type: functional, cell-based
[4] = biological target: T2, Thyrotropin-releasing hormone receptor 2; assay: Agonist activity at mouse TRH-R2 expressed in HEK293 cells assessed as induction of changes in intracellular Ca2+ level by FLIPR method; type: functional, cell-based
HEK293 = assay: Selectivity index, ratio of EC50 for agonist activity at mouse TRH-R1 expressed in HEK293 cells to EC50 for agonist activity at mouse TRH-R2 expressed in HEK293 cells; type: cell-based
Mus musculus = assay: Reduction in pentobarbital-induced sleeping time in Swiss mouse at 10 umol/kg, iv; type: functional
[5] = Half life in human plasma; type: ADME, cell-free
TRH-degrading ectoenzyme = biological target: T3, TRH-degrading ectoenzyme (Mus musculus, UniProt Q8K093); assay: Stability assessed as mouse recombinant TRH-degrading ectoenzyme-mediated compound degradation at 1 mM measured within 18 hrs by HPLC method; type: ADME; settings: read-out: Drug degradation
T3 sequence (Q8K093 whole entry): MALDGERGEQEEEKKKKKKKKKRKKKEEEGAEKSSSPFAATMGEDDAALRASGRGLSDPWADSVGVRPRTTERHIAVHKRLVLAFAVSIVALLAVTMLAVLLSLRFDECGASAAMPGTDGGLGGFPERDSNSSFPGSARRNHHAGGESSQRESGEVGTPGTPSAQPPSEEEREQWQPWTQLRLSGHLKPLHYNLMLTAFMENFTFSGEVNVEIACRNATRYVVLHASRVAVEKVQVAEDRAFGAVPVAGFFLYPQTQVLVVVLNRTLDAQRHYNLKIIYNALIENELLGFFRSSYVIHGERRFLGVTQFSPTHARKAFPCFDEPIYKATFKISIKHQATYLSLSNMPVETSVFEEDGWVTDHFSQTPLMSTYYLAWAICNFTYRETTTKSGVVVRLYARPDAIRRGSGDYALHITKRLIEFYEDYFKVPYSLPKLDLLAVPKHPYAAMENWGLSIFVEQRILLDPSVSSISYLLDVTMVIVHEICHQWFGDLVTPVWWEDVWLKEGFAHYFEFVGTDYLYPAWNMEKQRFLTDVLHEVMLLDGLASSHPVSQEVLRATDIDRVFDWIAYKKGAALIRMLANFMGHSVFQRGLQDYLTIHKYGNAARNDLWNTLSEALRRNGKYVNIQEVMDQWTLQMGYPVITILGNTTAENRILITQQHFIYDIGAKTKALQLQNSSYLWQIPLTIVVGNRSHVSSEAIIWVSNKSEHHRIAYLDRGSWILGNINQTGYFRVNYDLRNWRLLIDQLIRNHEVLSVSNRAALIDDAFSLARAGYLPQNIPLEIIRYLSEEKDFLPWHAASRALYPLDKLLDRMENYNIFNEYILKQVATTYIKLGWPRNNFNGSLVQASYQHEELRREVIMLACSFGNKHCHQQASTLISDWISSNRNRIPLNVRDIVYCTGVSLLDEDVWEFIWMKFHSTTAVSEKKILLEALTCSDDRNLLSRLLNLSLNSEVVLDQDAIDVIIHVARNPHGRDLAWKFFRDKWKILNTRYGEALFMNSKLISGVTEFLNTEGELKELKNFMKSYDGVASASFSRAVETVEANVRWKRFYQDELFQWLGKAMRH

[6] = biological target: T4, Thyrotropin-releasing hormone-degrading ectoenzyme (Mus musculus, UniProt Q8K093); assay: Stability assessed as mouse recombinant TRH-degrading ectoenzyme-mediated compound degradation up to 18 hrs by HPLC method; type: ADME
T4 sequence (Q8K093 whole entry): T3 sequence (Q8K093 whole entry)

Rattus norvegicus [7] = assay: Reduction in volume of infarction in Sprague-Dawley rat model of MCA occlusion-induced focal cerebral ischemia assessed as infarcts volume at 10 umol/kg, iv administered immediately after reperfusion and measured 22 hrs after reperfusion (reference value: 237.69 +/- 4.08 mm3); type: functional
Rattus norvegicus [8] = assay: Reduction in neurological score in Sprague-Dawley rat model of MCA occlusion-induced focal cerebral ischemia at 10 umol/kg, iv administered immediately after reperfusion and measured 22 hrs after reperfusion up to 7 days; type: functional, organism-based
Rattus norvegicus [9] = assay: Effect on mean latency time during acquisition trial in Sprague-Dawley rat model of MCA occlusion-induced memory impairment at 10 umol/kg, iv by passive avoidance test; type: ADME, organism-based; settings: in vivo
Rattus norvegicus [10] = assay: Effect on mean latency time during retention trial in Sprague-Dawley rat model of MCA occlusion-induced memory impairment at 10 umol/kg, iv by passive avoidance test; type: functional, organism-based
Rattus norvegicus [11] = assay: Reduction in cognitive impairment in Sprague-Dawley rat assessed as increase in number of entries to platform zone during retention trial at 10 umol/kg, iv measured on day 6 by Morris water maze test (reference value: 0.5); type: functional
Rattus norvegicus [12] = assay: Reduction in cognitive impairment in Sprague-Dawley rat assessed as reduction in latency to first entry to platform zone during retention trial at 10 umol/kg, iv measured on day 6 by Morris water maze test (reference value: 95.76 secs); type: functional
Rattus norvegicus [13] = assay: Inhibition of lipid peroxidation in brain homogenates of Sprague-Dawley rat model of 2 hrs MCA occlusion-induced focal cerebral ischemia assessed as reduction in MDA levels at 10 umol/kg, iv administered immediately after reperfusion and measured 22 hrs after reperfusion by TBARS assay; type: functional, organism-based
Rattus norvegicus [14] = assay: Increase in neuronal survival in Sprague-Dawley rat model of MCA occlusion-induced focal cerebral ischemia assessed as increase in neuronal density at hippocampal CA1 regions at 10 umol/kg, iv by Cresyl violet staining based microscopy; type: functional, organism-based
Rattus norvegicus [15] = assay: Neuroprotective activity in Sprague-Dawley rat model of MCA occlusion-induced memory impairment assessed as maximum latency time during acquisition trial at 10 umol/kg, iv by passive avoidance test (reference value: 49 secs); type: functional
Rattus norvegicus [16] = assay: Neuroprotective activity in Sprague-Dawley rat model of MCA occlusion-induced memory impairment assessed as minimum latency time during acquisition trial at 10 umol/kg, iv by passive avoidance test (reference value: 49 secs); type: functional

Row | IC50 [1] [µM] | IC50 [2] [µM] | EC50 [3] [µM] | EC50 [4] [µM] | Structure (SMILES) | Ratio EC50 (HEK293) | inhibition in vivo at 10 µmol/kg (Mus musculus) [%] | also measured
1 | > 50 | > 50 | 19.3 | 0.53 | NC(=O)[C@@H]1CCCN1C(=O)[C@H](Cc1nc[nH]c1Cl)NC(=O)c1cnccn1 | 36.5 | 29.8 | 
2 | > 50 | > 50 | 11.3 | 0.31 | NC(=O)[C@@H]1CCCN1C(=O)[C@H](Cc1nc(I)[nH]c1I)NC(=O)c1cnccn1 | 36.3 | 1.5 | 
3 | > 50 | > 50 | 3.98 | 0.048 | NC(=O)[C@@H]1CCCN1C(=O)[C@H](Cc1nc[nH]c1Br)NC(=O)c1cnccn1 | 82.9 | 32.8 | 
4 | > 50 | > 50 | 0.34 | 0.03 | Cn1cnc(C[C@H](NC(=O)c2cnccn2)C(=O)N2CCC[C@H]2C(N)=O)c1Br | 11.3 | 32.3 | 
5 | > 50 | > 50 | 0.15 | 0.06 | CCCc1nc(C[C@H](NC(=O)c2cnccn2)C(=O)N2CCC[C@H]2C(N)=O)c[nH]1 | 2.5 | 63.6 | 
6 | > 50 | > 50 | 2.54 | 0.05 | NC(=O)[C@@H]1CCCN1C(=O)[C@H](Cc1nc(Br)[nH]c1Br)NC(=O)c1cnccn1 | 50.8 | 74.8 | Stability [6]: Stable; Activity (Rattus norvegicus [7]): 196.08 mm3; Activity (Rattus norvegicus [8]): Active; Activity (Rattus norvegicus [9]): Non-toxic; Activity (Rattus norvegicus [10]): Active; Activity (Rattus norvegicus [11]): 2.25; Time (Rattus norvegicus [12]): 36.31 s; Activity (Rattus norvegicus [13]): Active; Activity (Rattus norvegicus [14]): Active; Time (Rattus norvegicus [15]): 167 s; Time (Rattus norvegicus [16]): 96 s
7 | > 50 | > 50 | 0.017 | 0.015 | CCCc1nc(C[C@H](NC(=O)c2cnc(C)cn2)C(=O)N2CCC[C@H]2C(N)=O)c[nH]1 | 1.1 | 4.1 | 
8 | > 50 | > 50 | 7.21 | 0.96 | CCn1c(I)nc(C[C@H](NC(=O)c2cnccn2)C(=O)N2CCC[C@H]2C(N)=O)c1I | 7.5 | 1.8 | 
9 | > 50 | > 50 | 1.56 | 0.12 | CCCc1nc(C[C@H](NC(=O)c2nccnc2N)C(=O)N2CCC[C@H]2C(N)=O)c[nH]1 | 10.5 | 52.2 | 

Second part, the molecule before the results:

Row | Structure (SMILES) | IC50 [1] [µM] | IC50 [2] [µM] | EC50 [3] [µM] | EC50 [4] [µM] | Ratio EC50 (HEK293) | inhibition in vivo at 10 µmol/kg (Mus musculus) [%] | also measured
10 | NC(=O)[C@@H]1CCCN1C(=O)[C@H](Cc1cnc[nH]1)NC(=O)[C@@H]1CCC(=O)N1 [PROTIRELIN] | 0.0026 | 0.007 |  | 0.00052 |  |  | half-life [5]: 2 min; metabolised at 18 h, 1000 µM (TRH-degrading ectoenzyme): 80%
11 | NC(=O)[C@@H]1CCCN1C(=O)[C@H](Cc1nc(Br)[nH]c1Br)NC(=O)c1nccnc1N | > 50 | > 50 | 1.41 | 0.29 | 4.8 | 12.2 | 
12 | Cc1cnc(C(=O)N[C@@H](Cc2nc[nH]c2Br)C(=O)N2CCC[C@H]2C(N)=O)cn1 | > 50 | > 50 | 0.498 | 0.04 | 12.4 | 23.2 | 
13 | Cc1cnc(C(=O)N[C@@H](Cc2nc(Br)[nH]c2Br)C(=O)N2CCC[C@H]2C(N)=O)cn1 | > 50 | > 50 | 0.077 | 0.1 | 0.77 | 29 | 
14 | NC(=O)[C@@H]1CCCN1C(=O)[C@H](Cc1c[nH]cn1)NC(=O)[C@@H]1CCC(=O)N1 [PROTIRELIN] |  |  |  |  | 1.9 | 51.1 | EC50 ([3]; hek293): 0.001 µM
15 | NC(=O)[C@@H]1CCCN1C(=O)[C@H](Cc1nc[nH]c1Br)NC(=O)c1nccnc1N | > 50 | > 50 | 0.287 | 0.006 | 47.8 | 29.5 | 
16 | CCCc1nc(C[C@H](NC(=O)C2CCCCN2)C(=O)N2CCC[C@H]2C(N)=O)c[nH]1 (single isomer, unassigned) | > 50 | > 50 | 0.94 | 0.004 | 235 | 67.4 | 
17 | NC(=O)[C@@H]1CCCN1C(=O)[C@H](Cc1nc(I)n(Cc2ccccc2)c1I)NC(=O)c1cnccn1 | > 50 | > 50 | 0.98 | 0.03 | 32.6 | 74.8 | 
18 | Cc1cnc(C(=O)N[C@@H](Cc2nc(I)n(Cc3ccccc3)c2I)C(=O)N2CCC[C@H]2C(N)=O)cn1 | > 50 | > 50 | 0.74 | 0.05 | 14.8 | 50.1 | 
19 | CC(C)c1nc(C[C@H](NC(=O)C2CCCCN2)C(=O)N2CCC[C@H]2C(N)=O)c[nH]1 (single isomer, unassigned) | > 50 | > 50 | 1 | 0.77 | 1.3 | 42.7 | 
